Results taken from ChEMBL document CHEMBL6178015, “Discovery of a Novel Serine-Targeting Covalent Inhibitor against HCES2A for Treating Drug-induced Diarrhea and Ulcerative Colitis” (J Med Chem, 2025).
The source made the active and inactive calls. No cut-off for these calls is given here.

Columns and labels:
[1] = Inhibition of human CES2A using fluorescein diacetate as substrate preincubated for 3 mins followed by substrate addition and measured after 30 mins by fluorescence microplate reader
[2] = Inhibition of human CES1A using NLMe as substrate preincubated for 3 mins followed by substrate addition and measured after 20 mins by chemiluminescence analysis
Homo sapiens [3] = species: Homo sapiens; test: Selectivity index, ratio of IC50 for inhibition of human CES1A to IC50 for inhibition of human CES2A
Homo sapiens [4] = species: Homo sapiens; test: Irreversible inhibition of human CES2A at 0.02 nM preincubated for 33 mins and measured after 8 hrs dialysis by fluorescence microplate reader; details: time 513.0 min
Mus musculus [5] = test: Antiinflammatory activity against DSS-induced ulcerative colitis mouse model assessed as upregulation of ZO-1 expression in colon tissues at 700 mg/kg,IG administered once daily 7 days by immunohistochemical analysis; format: functional, organism-based; details: time 7.0 day
Mus musculus [6] = test: Antiinflammatory activity against DSS-induced ulcerative colitis mouse model assessed as reduction in inflammatory infiltration in lamina propria at 30 to 60 mg/kg,IG administered once daily 7 days by H and E staining based analysis; format: functional, organism-based; details: dose 30-60 mg/kg, time 7.0 day
[7] = target: Voltage-gated inwardly rectifying potassium channel KCNH2 (Homo sapiens, UniProt Q12809); test: Inhibition of hERG expressed in HEK293 cells; format: toxicity, cell-based
Mus musculus [8] = test: Antiinflammatory activity against DSS-induced ulcerative colitis mouse model assessed as upregulation of claudin-1 expression in colon tissues at 700 mg/kg,IG administered once daily 7 days by immunohistochemical analysis; format: functional, organism-based; details: time 7.0 day
Mus musculus [9] = test: Reversal of irinotecan-induced gut toxicity in C57BL/6J mouse bearing MC38 cells assessed as restoration of IL-6 levels in colon tissues at 30 to 60 mg/kg,po administered daily and measured after 14 days by ELISA; format: functional, organism-based; details: dose 30-60 mg/kg, time 14.0 day
Mus musculus [10] = test: Antiinflammatory activity against DSS-induced ulcerative colitis mouse model assessed as restoration of colon histology at 700 mg/kg,IG administered once daily 7 days by AB-PAS staining based analysis; format: functional, organism-based; details: time 7.0 day
Homo sapiens [11] = species: Homo sapiens; test: Irreversible inhibition of human CES2A assessed as inactivation constant incubated for 5 to 30 mins; details: time 5-30 min
[12] = Irreversible inhibition of human CES2A assessed as inhibition constant incubated for 5 to 30 mins
Mus musculus [13] = test: Reversal of irinotecan-induced gut toxicity in C57BL/6J mouse bearing MC38 cells assessed as amelioration of inflammatory cell infiltration loss at 30 to 60 mg/kg,po administered daily and measured after 14 days by H and E staining based analysis; format: functional, organism-based; details: dose 30-60 mg/kg, time 14.0 day
Mus musculus [14] = test: Antiinflammatory activity against DSS-induced ulcerative colitis mouse model assessed as preservation of colonic mucosal structure at 30 to 60 mg/kg,IG administered once daily 7 days by H and E staining based analysis; format: functional, organism-based; details: dose 30-60 mg/kg, time 7.0 day
hERG (KCNH2) = hERG (KCNH2) (Homo sapiens, UniProt Q12809); test: Inhibition of hERG expressed in HEK293 cells at 10 uM relative to control; format: toxicity, cell-based; details: HEK293 cells that express hERG
Mus musculus [15] = test: Antiinflammatory activity against DSS-induced ulcerative colitis mouse model assessed as restoration of IL-1beta levels in colon tissues at 30 to 60 mg/kg,IG administered once daily 7 days by ELISA; format: functional, organism-based; details: dose 30-60 mg/kg, time 7.0 day
Mus musculus [16] = test: Reversal of irinotecan-induced gut toxicity in C57BL/6J mouse bearing MC38 cells assessed as change in tumor size at 30 to 60 mg/kg,po administered daily and measured after 14 days; format: functional, organism-based; details: dose 30-60 mg/kg, time 14.0 day
Mus musculus [17] = test: Antiinflammatory activity against DSS-induced ulcerative colitis mouse model assessed as alleviation in body weight loss at 30 to 60 mg/kg,IG administered once daily 7 days; format: functional, organism-based; details: dose 30-60 mg/kg, time 7.0 day
Mus musculus [18] = test: Reversal of irinotecan-induced gut toxicity in C57BL/6J mouse bearing MC38 cells assessed as increase in ZO-1 expression level in colon tissues at 30 to 60 mg/kg,po administered daily and measured after 14 days by immunohistochemical analysis; format: functional, organism-based; details: dose 30-60 mg/kg, time 14.0 day
Mus musculus [19] = test: Reversal of irinotecan-induced gut toxicity in C57BL/6J mouse bearing MC38 cells assessed as amelioration of goblet cell apoptosis at 30 to 60 mg/kg,po administered daily and measured after 14 days by H and E staining based analysis; format: functional, organism-based; details: dose 30-60 mg/kg, time 14.0 day
Mus musculus [20] = test: Reversal of irinotecan-induced gut toxicity in C57BL/6J mouse bearing MC38 cells assessed as reduction in colon shortening at 30 to 60 mg/kg,po administered daily and measured after 14 days; format: functional, organism-based; details: dose 30-60 mg/kg, time 14.0 day
Homo sapiens [21] = species: Homo sapiens; test: Potency index, ratio of LC-20W IC50 to test compound IC50 for inhibition of human CES2A using fluorescein diacetate as substrate
Mus musculus [22] = test: Antiinflammatory activity against DSS-induced ulcerative colitis mouse model assessed as restoration of IL-6 levels in colon tissues at 30 to 60 mg/kg,IG administered once daily 7 days by ELISA; format: functional, organism-based; details: dose 30-60 mg/kg, time 7.0 day
Mus musculus [23] = test: Reversal of irinotecan-induced gut toxicity in C57BL/6J mouse bearing MC38 cells assessed as effect on tumor volume at 30 to 60 mg/kg,po administered daily and measured after 14 days; format: functional, organism-based; details: dose 30-60 mg/kg, time 14.0 day
Mus musculus [24] = test: Reversal of irinotecan-induced gut toxicity in C57BL/6J mouse bearing MC38 cells assessed as amelioration of epithelial crypts loss at 30 to 60 mg/kg,po administered daily and measured after 14 days by H and E staining based analysis; format: functional, organism-based; details: dose 30-60 mg/kg, time 14.0 day
Mus musculus [25] = test: Reversal of irinotecan-induced gut toxicity in C57BL/6J mouse bearing MC38 cells assessed as increase in claudin-1 expression level in colon tissues at 30 to 60 mg/kg,po administered daily and measured after 14 days by immunohistochemical analysis; format: functional, organism-based; details: dose 30-60 mg/kg, time 14.0 day
Mus musculus [26] = test: Reversal of irinotecan-induced gut toxicity in C57BL/6J mouse bearing MC38 cells assessed as reduction in diarrhea at 30 to 60 mg/kg,po administered daily and measured after 14 days; format: functional, organism-based; details: dose 30-60 mg/kg, time 14.0 day
Mus musculus [27] = test: Reversal of irinotecan-induced gut toxicity in C57BL/6J mouse bearing MC38 cells assessed as restoration of IL-1beta levels in colon tissues at 30 to 60 mg/kg,po administered daily and measured after 14 days by ELISA; format: functional, organism-based; details: dose 30-60 mg/kg, time 14.0 day
[28] = Irreversible inhibition of human CES2A using fluorescein diacetate as substrate preincubated for 33 mins followed by substrate addition by fluorescence microplate reader
[29] = Irreversible inhibition of human CES2A using fluorescein diacetate as substrate preincubated for 3 mins followed by substrate addition by fluorescence microplate reader
Mus musculus [30] = test: Reversal of irinotecan-induced gut toxicity in C57BL/6J mouse bearing MC38 cells assessed as weight recovery at 30 to 60 mg/kg,po administered daily and measured after 14 days; format: functional, organism-based; details: dose 30-60 mg/kg, time 14.0 day
Mus musculus [31] = test: Antiinflammatory activity against DSS-induced ulcerative colitis mouse model assessed as reduction in crypt destruction in colon tissues at 30 to 60 mg/kg,IG administered once daily 7 days by H and E staining based analysis; format: functional, organism-based; details: dose 30-60 mg/kg, time 7.0 day
Mus musculus [32] = test: Antiinflammatory activity against DSS-induced ulcerative colitis mouse model assessed as upregulation of occludin expression in colon tissues at 700 mg/kg,IG administered once daily 7 days by immunohistochemical analysis; format: functional, organism-based; details: time 7.0 day
Mus musculus [33] = test: Antiinflammatory activity against DSS-induced ulcerative colitis mouse model assessed as decrease in DAI score at 30 to 60 mg/kg,IG administered once daily 7 days; format: functional, organism-based; details: dose 30-60 mg/kg, time 7.0 day
Mus musculus [34] = test: Antiinflammatory activity against DSS-induced ulcerative colitis mouse model assessed as inhibition of colon contracture at 30 to 60 mg/kg,IG administered once daily 7 days; format: functional, organism-based; details: dose 30-60 mg/kg, time 7.0 day
Mus musculus [35] = test: Reversal of irinotecan-induced gut toxicity in C57BL/6J mouse bearing MC38 cells assessed as effect on tumor weight at 30 to 60 mg/kg,po administered daily and measured after 14 days; format: functional, organism-based; details: dose 30-60 mg/kg, time 14.0 day
Mus musculus [36] = test: Reversal of irinotecan-induced gut toxicity in C57BL/6J mouse bearing MC38 cells assessed as restoration of TNF-alpha levels in colon tissues at 30 to 60 mg/kg,po administered daily and measured after 14 days by ELISA; format: functional, organism-based; details: dose 30-60 mg/kg, time 14.0 day
[37] = Inhibition of human CES2A in HepG2 cells incubated for 1 hrs by NCEN and Hoechst 33342 staining based assay; format: cell-based
Mus musculus [38] = test: Antiinflammatory activity against DSS-induced ulcerative colitis mouse model assessed as restoration of TNF-alpha levels in colon tissues at 30 to 60 mg/kg,IG administered once daily 7 days by ELISA; format: functional, organism-based; details: dose 30-60 mg/kg, time 7.0 day
HepG2 = test: Inhibition of human CES2A in HepG2 cells assessed as decrease in green fluorescence at 5 to 60 nM incubated for 1 hrs by NCEN and Hoechst 33342 staining based assay; format: cell-based; details: dose 5-60 nM

Voltage-gated inwardly rectifying potassium channel KCNH2, sequence (Q12809 whole entry): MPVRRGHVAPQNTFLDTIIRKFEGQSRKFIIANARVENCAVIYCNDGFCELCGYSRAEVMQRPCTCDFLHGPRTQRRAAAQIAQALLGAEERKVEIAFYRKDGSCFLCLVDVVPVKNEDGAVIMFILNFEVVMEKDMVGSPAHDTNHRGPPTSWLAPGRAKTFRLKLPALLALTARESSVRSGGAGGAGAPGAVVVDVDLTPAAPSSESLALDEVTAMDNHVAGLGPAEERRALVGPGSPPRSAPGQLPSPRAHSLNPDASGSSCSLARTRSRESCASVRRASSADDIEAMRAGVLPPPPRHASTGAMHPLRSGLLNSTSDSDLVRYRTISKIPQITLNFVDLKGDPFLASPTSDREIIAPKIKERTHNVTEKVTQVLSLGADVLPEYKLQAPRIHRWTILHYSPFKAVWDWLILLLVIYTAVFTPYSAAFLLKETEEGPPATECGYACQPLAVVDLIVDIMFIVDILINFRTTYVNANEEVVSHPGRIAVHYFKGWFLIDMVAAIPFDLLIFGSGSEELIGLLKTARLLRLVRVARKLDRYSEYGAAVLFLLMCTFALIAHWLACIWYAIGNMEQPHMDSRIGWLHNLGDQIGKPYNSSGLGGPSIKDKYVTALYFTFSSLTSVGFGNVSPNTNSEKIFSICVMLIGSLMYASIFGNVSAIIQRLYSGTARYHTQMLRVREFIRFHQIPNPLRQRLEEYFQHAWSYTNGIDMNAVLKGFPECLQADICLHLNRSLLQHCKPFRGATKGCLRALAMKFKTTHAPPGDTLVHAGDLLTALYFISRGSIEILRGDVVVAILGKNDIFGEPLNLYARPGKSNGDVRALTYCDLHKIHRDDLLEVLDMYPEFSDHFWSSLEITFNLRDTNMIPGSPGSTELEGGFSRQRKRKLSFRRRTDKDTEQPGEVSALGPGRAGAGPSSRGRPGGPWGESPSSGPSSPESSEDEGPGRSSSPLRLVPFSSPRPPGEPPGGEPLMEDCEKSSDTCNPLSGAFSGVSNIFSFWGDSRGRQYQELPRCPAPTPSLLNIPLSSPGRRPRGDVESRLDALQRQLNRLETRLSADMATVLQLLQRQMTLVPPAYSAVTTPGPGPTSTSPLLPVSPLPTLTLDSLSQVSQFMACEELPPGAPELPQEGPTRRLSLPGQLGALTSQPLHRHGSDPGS
hERG (KCNH2), sequence (Q12809 whole entry): as above

For `CCCCCCC(=O)c1cccc2oc(-c3cc(C)ccc3NC(=O)OCC(C)C)cc12`, the IC50 [1] was 1.04 nM, the IC50 [2] was > 10000 nM and the Ratio IC50 (Homo sapiens [3]) was > 9600.
With `CCCCCCOC(=O)Nc1ccc(C)cc1-c1cc2c(C(=O)CCCCCC)cccc2o1` the IC50 [1] was 362 nM.
With `CCCCCCCCC(=O)c1cccc2oc(-c3cc(OC)ccc3OC(=O)N3CCOCC3)cc12` the IC50 [1] was 0.542 nM, the IC50 [2] was 29.2 nM and the Ratio IC50 (Homo sapiens [3]) was 53.9.
For `CCCCCCOC(=O)Nc1ccccc1-c1cc2c(C(=O)CCCCCC)cccc2o1`, the IC50 [1] was > 10000 nM.
For `CCCCCCCCC(=O)c1cccc2oc(-c3cc(C)ccc3N)cc12`, the IC50 [1] was 736 nM.
`CCCCCCC(=O)c1cccc2oc(-c3cc(OC)ccc3N)cc12` showed an IC50 [1] of 1970 nM.
In the case of `CCCCCCC(=O)c1cccc2oc(-c3ccccc3NC(=O)OCCCC)cc12`, the IC50 [1] is reported as 1260 nM.
Compound `CCCCCCCCC(=O)c1cccc2oc(-c3cc(OC)ccc3OC(=O)N(C)CC)cc12` has an IC50 [1] of 0.625 nM, an IC50 [2] of 4 nM and a Ratio IC50 (Homo sapiens [3]) of 6.4.
`CCCCCCC(=O)c1cccc2oc(-c3cc(C)ccc3NC(=O)OCC3c4ccccc4-c4ccccc43)cc12` gave an IC50 [1] of 2140 nM.
With `CCCCCCC(=O)c1cccc2oc(-c3cc(C)ccc3NC(=O)OCc3ccccc3)cc12` the IC50 [1] was 3640 nM.
For `CCCCCCCCC(=O)c1cccc2oc(-c3cc(OC)ccc3OC(=O)N3CCCC3)cc12`, the IC50 [1] was 0.118 nM, the inhibition (Homo sapiens [4]) was “Active” and the Activity (Mus musculus [5]) was “Active”. For the same compound, the IC50 [2] was 6.95 nM, the Activity (Mus musculus [6]) was “Active” and the IC50 [7] was > 10000 nM. The Activity (Mus musculus [8]) was “Active”, the Activity (Mus musculus [9]) was “Active” and the Activity (Mus musculus [10]) was “Active”. For the same compound, the Kinact (Homo sapiens [11]) was 0.052 min⁻¹, the Ki [12] was 0.43 nM and the Activity (Mus musculus [13]) was “Active”. For the same compound, the Activity (Mus musculus [14]) was “Active”, the inhibition at 10 µM (hERG (KCNH2)) was 14.6% and the Activity (Mus musculus [15]) was “Active”. The Activity (Mus musculus [16]) was “inactive”, the Activity (Mus musculus [17]) was “Active” and the Activity (Mus musculus [18]) was “Active”. The Activity (Mus musculus [19]) was “Active”, the Activity (Mus musculus [20]) was “Active” and the Ratio IC50 (Homo sapiens [3]) was 59. For the same compound, the Ratio IC50 (Homo sapiens [21]) was 13, the Activity (Mus musculus [22]) was “Active” and the Activity (Mus musculus [23]) was “Active”. For the same compound, the Activity (Mus musculus [24]) was “Active”, the Activity (Mus musculus [25]) was “Active” and the Activity (Mus musculus [26]) was “Active”. The Activity (Mus musculus [27]) was “Active”, the IC50 [28] was 0.028 nM and the IC50 [29] was 0.12 nM. The Activity (Mus musculus [30]) was “Active”, the Activity (Mus musculus [31]) was “Active” and the Activity (Mus musculus [32]) was “Active”. The Activity (Mus musculus [33]) was “Active”, the Activity (Mus musculus [34]) was “Active” and the Activity (Mus musculus [35]) was “inactive”. For the same compound, the Activity (Mus musculus [36]) was “Active”, the IC50 [37] was 19.6 nM and the Activity (Mus musculus [38]) was “Active”. The inhibition (HepG2) was “Active”.
Compound `CCCCCCCCC(=O)c1cccc2oc(-c3ccccc3N)cc12` has an IC50 [1] of 881 nM.
Work on `CCCC(=O)c1cccc2oc(-c3ccccc3N)cc12` yielded an IC50 [1] of 11100 nM.
With `C=CCOC(=O)Nc1ccccc1-c1cc2c(C(=O)CCCCCC)cccc2o1` the IC50 [1] was 596 nM.
With `CCCCCCC(=O)c1cccc2oc(-c3ccccc3NC(=O)OCC(CC)CCCC)cc12` (stereo not given) the IC50 [1] was 1340 nM.
